Measurements from patent US20080280890A1, “HYDROXYLAMINE COMPOUNDS AND METHODS OF THEIR USE” (priority 2007, published 2008).

Tests used:
lipid peroxidation = experiment: Lipid peroxidation inhibition (method of Ohkawa); assay type: biochemical
[1] = test system: Human neuroblastoma SKN-SH cells, resistant to doxorubicin; experiment: Chemoresistance: cancer cell viability (MTT) in presence or absence of doxorubicin; assay type: cell-based; conditions: compound 50 ug/mL, MTT
Text: A method for evaluating a compound's propensity to overcome cancer cell chemoresistance is described in “Caspase Inhibition Switches Doxorubicin-Induced Apoptosis To Senescence”, Abdelhadi Rebbaa, Xin Zheng, Pauline M Chou and Bernard L Mirkin, Oncogene (2003) 22, 2805-2811. Resistant human cancer cells to doxorubicin were selected by stepwise exposure to drug concentrations ranging from 10^−9 M-10^−6 M over 3 months. They were then subjected to treatment with the doxorubicin alone or in combination with hydroxylamine compounds 1-12, 16, 20, and 21 (Table 4). The cells were incubated with the drugs for 72 hours, and cell viability was measured by the MTT assay. Additionally, molecular pathways that might be associated with increased chemo-responsiveness with these compounds were investigated. p Cancer Cell Viability Data for certain hydroxylamines in the presence or absence of Doxorubicin is listed in Table 4.
A method for evaluating a compound's propensity to overcome cancer cell chemoresistance is described in “Caspase Inhibition Switches Doxorubicin-Induced Apoptosis To Senescence”, Abdelhadi Rebbaa, Xin Zheng, Pauline M Chou and Bernard L Mirkin, Oncogene (2003) 22, 2805-2811. Human neuroblastoma SKN-SH cells (ATCC Cat. No. HTB-11) were cultured in Dulbecco's Modified Eagles Medium (DMEM; Gibco, Grand Island, N.Y.) supplemented with 10% fetal bovine serum (FBS; Sigma-Aldrich, St. Louis, Mo.) at 37° C. in a 95% Air/5% CO2 atmosphere. Resistant human cancer cells to doxorubicin were selected by stepwise exposure to drug concentrations ranging from 10^−9M-10^−6M over 3 months. They were then subjected to treatment with the doxorubicin alone or in combination with hydroxylamine compounds. The cells were incubated with the drugs for 72 hours, and cell viability was measured by the MTT assay. This consists of adding 10 μl/well of MTT (5 mg/ml solution) and incubation for 4 h at 37° C. The precipitate formed is then solubilized by addition of 100 μl of HCL 0.5 N/Isopropanol and incubation for 15 hours at 37° C. The optical density is measured at 570 nm and cell survival is estimated by comparison to untreated cells. Each point represents 4 wells data represent average ± SE. Additionally, molecular pathways that might be associated with increased chemo-responsiveness with these compounds were investigated.
Cytotoxic activity of doxorubicin and hydroxylamine analogs were quantitatively determined by a colorimetric assay utilizing 3-(4,5-dimethyl-2-thiazolyl) 2,5-diphenyl tetrazolium bromide (MTT; Sigma-Aldrich, St. Louis, Mo.). Briefly, cells were seeded at 10^4 cells/well in 96-well plates and maintained in culture for 24 hours at 37° C. in DMEM supplemented with 10% FBS. Drugs were added to designated wells and cells were incubated for […], following which MTT (10 μL of 5 mg/ml solution) was added to each 100 μl well and incubated for 4 hours at 37° C. The cells were solubilized by incubation with 100 μl of HCl 0.5N in isopropanol for 15 hours at 37° C. The optical density of this solution was measured at 570 nm and the percentage of viable cells estimated by comparison with untreated control cells.

[2] = test system: Angiogenesis in CAM model; experiment: Neovascularization on the CAM (chick chorioallantoic membrane model of angiogenesis); assay type: in vivo, chicken; conditions: 30 ug; for Percent inhibition of angiogenesis in CAM model at 30 ug: unit assumed
Method: In vivo neovascularization was examined by the method previously described by Auerbach et al. (J. Dev. Biol. 41:391-394 (1974)). Ten-day old chicken embryos were purchased from Spafas, Inc. (Preston, Conn.) and were incubated at 37° C. with 55% relative humidity. In the dark, with the aid of a candling lamp, a small hole was punctured in the shell concealing the air sac with a hypodermic needle. A second hole was punctured in the shell on the broadside of the egg directly over an […] portion of the embryonic membrane, as observed during candling. An artificial air sac was created beneath the second hole by applying gentle vacuum to the first hole using a small rubber squeeze bulb. The vacuum caused the chorioallantoic membrane (CAM) to separate from the shell.
A window, approximately 1.0 cm^2, was cut in the shell over the dropped CAM with the use of a small crafts grinding wheel (Dremel, Division of Emerson Electric Company Racine, Wis.). The window allowed direct access to the underlying CAM.
A pro-angiogenic agent was added to induce new blood vessel branches on the CAM of 10-day old embryos. Filter disks of #1 filter paper (Whatman International, United Kingdom) were punched using a small puncher and were soaked in 3 mg/mL cortisone acetate (Sigma, St. Louis, Mo.) in a solution (95% ethanol and water). The disks were subsequently air dried under sterile conditions. The disks were then suspended in PBS (Phosphate Buffered Saline) and placed on growing CAMs. Filters treated with TP-H (TEMPOL-H) or TEMPOL and/or H2O2 or TP-H and/or bFGF or VEGF were placed on the first day of the 3-day incubation.
For inducing angiogenesis, sterile filter disks were saturated with bFGF (1 μg/ml) (Life Technologies, Gaithersburg, Md.) or other pro-angiogenesis factors and control disks were saturated with PBS without Calcium and Magnesium. […]
Using sterile forceps one filter/CAM was placed from the window. The window was sealed with Highland brand transparent tape.
After 24-48 hr, 10-25 ul of test agent was injected intravenously or added topically into the CAM membrane. Eight-Ten eggs/treatment group were used.
CAM tissue directly beneath filter disk was harvested from embryos treated 48 hours prior with compound or control. Tissues were washed three times with PBS. Sections were placed in a 35-mm petri dish (Nalge Nunc, Rochester, N.Y.) and examined under a SV6 stereomicroscope (Karl Zeiss, Thornwood, N.Y.) at 50× magnification.
CAM sections from Petri dish were examined using SV6 stereomicroscope (Karl Zeiss) at 50× magnification. Digital images of CAM sections from Petri dish were collected using a 3-CCD color video camera system (Toshiba America, New York, N.Y.). These images were analyzed using Image-Pro Plus software (Media Cybernetics, Silver Spring, Md.).
The number of branch points in blood vessels within the circular region superimposed to the area of a filter disk was counted for each section. After incubation at 37° C. with 55% relative humidity for 3 days, the CAM tissue directly beneath each filter disk was resected from control and treated CAM samples. Tissues were washed three times with PBS. Sections were placed in a 35-mm Petri dish (Nalge Nunc; Rochester, N.Y.) and were examined under a SV6 stereomicroscope (Karl Zeiss; Thornwood, N.Y.) at 50× magnification. Digital images of CAM sections adjacent to filters were collected using a 3-CCD color video camera system (Toshiba America; New York, N.Y.) and analyzed with the Image-Pro Plus software (Media Cybernetics; Silver Spring, Md.).
The number of vessel branch points contained in a circular region equal to the area of a filter disk was counted for each section. Percent inhibition data are expressed as the quotient of the experimental value minus the negative control value divided by the difference between the positive control value and the negative control value. […]

melting point	SMILES	Lipid Peroxidation % Inhibition (lipid peroxidation; 10 uM)	Mean OD (×10^−3), cancer cell viability ([1]; Dox. 10^−6 M present (+))	Mean OD (×10^−3), cancer cell viability ([1]; Dox. absent (−))	Percent inhibition of angiogenesis in CAM model at 30 ug [2]	CAM data % Inhibition [2]	% Lipid Peroxidation inhibition (at 1 uM) (lipid peroxidation)	Lipid Peroxidation % Inhibition (lipid peroxidation; 100 uM)
	CC1(C)CC(NS(C)(=O)=O)CC(C)(C)N1O [Compound 10, 1-hydroxy-4-methanesulfonamido-2,2,6,6-tetramethylpiperidine]	85.8%	250.00 ×10^−3	456.00 ×10^−3	78.2%			
	COc1cc2c(cc1O)CC[C@@H]1[C@@H]2CC[C@]2(C)[C@@H](O)CC[C@@H]12 [2-Methoxy estradiol, reference compound]	92.3%				92.3%		
	CC1(C)CC(O)C(C)(C)N1O (stereo not drawn) [Compound 7, 2,2,5,5-Tetramethyl-Pyrrolidine-1,3-diol]	82.9%	241.25 ×10^−3	540.25 ×10^−3	100%			
	CC1(C)CC(N2CCOCC2)CC(C)(C)N1O.Cl [Compound 3, 4-(2,2,6,6-tetramethylpiperidin-1-hydroxy-4-yl)morpholine]	77.8%	289.50 ×10^−3	640.25 ×10^−3	54.7%			
	CC1(C)CC(Oc2nsnc2C#N)CC(C)(C)N1O [Compound 45]		276.50 ×10^−3	1063.33 ×10^−3	50%		91.5%	
	COC1CC(C)(C)N(O)C(C)(C)C1.Cl [Compound 1, 1-hydroxy-4-methoxy-2,2,6,6-tetramethylpiperidine]	90.8%	246.50 ×10^−3	524.75 ×10^−3	89.9%		74.1%	
	CC1(C)C=C(CO)CC(C)(C)N1O.Cl [Compound 25]		325.00 ×10^−3	1137.50 ×10^−3	62.9%		42.0%	
181.5 °C (dec.)	CC1(C)CC(OCc2ccccc2)CC(C)(C)N1O.Cl [Compound 43, 4-Benzyloxy-1-hydroxy-2,2,6,6-tetramethylpiperidine]		324.67 ×10^−3	1159.00 ×10^−3	85.5%			
	CC(C)(C)c1cc(NC(=O)C2CC(C)(C)N(O)C(C)(C)C2)cc(C(C)(C)C)c1O.Cl [Compound 29, N-(3,5-di-tert-butyl-4-hydroxyphenyl)-1-hydroxy-2,2,6,6-tetramethylpiperidine-4-carboxamide]		105.75 ×10^−3	1328.00 ×10^−3	100%		92.3%	
	CC1(C)C=CCC(C)(C)N1O.Cl [Compound 35, 1-hydroxy-1,2,3,6-tetrahydro-2,2,6,6-tetramethylpyridine]		352.75 ×10^−3	1128.00 ×10^−3			64.4%	
	CC1(C)CC(CO)C(C)(C)N1O.Cl (stereo not drawn) [Compound 33]		300.00 ×10^−3	1237.50 ×10^−3	77.8%		54.9%	
201.7 °C (dec.)	CC1(C)CC(O)(c2ccccc2)CC(C)(C)N1O.Cl [Compound 42, 1,4-Dihydroxy-4-phenyl-2,2,6,6-tetrmethylpiperidine]		311.00 ×10^−3	1068.67 ×10^−3	61.9%			
	CC(C)(C)/[N+]([O-])=C/c1ccccc1 [Compound 17, α-phenyl-t-butyl nitrone, reference compound]	0.4%						
	O=C(O)c1cc(C(=O)O)c2c(n1)C(=O)C(=O)c1cc(C(=O)O)[nH]c1-2 [PQQ, pyrroloquinoline quinone, reference compound]							93.7%
201.8 °C (dec.)	CC1(C)CC(Cl)CC(C)(C)N1O.Cl [Compound 21, 4-chloro-1-hydroxy-2,2,6,6-tetramethylpiperidine]		99.25 ×10^−3	492.75 ×10^−3	60.9%			
	CC1(C)CC(C(N)=O)C(C)(C)N1O (stereo not drawn) [Compound 24, 1-hydroxy-2,2,5,5-tetramethylpyrrolidine-3-carboxamide]		362.00 ×10^−3	1166.50 ×10^−3	65.8%		37.0%	
220.8 °C (dec.)	CC1(C)CC(Oc2nsnc2-c2ccccc2)CC(C)(C)N1O.Cl [Compound 44, 1-hydroxy-4-(4-phenyl-1,2,5-thiadiazol-3-yloxy)-2,2,6,6-tetramethylpiperidine]		13.25 ×10^−3	23.00 ×10^−3	71.2%			
